Results as given in patent US4103082A, “Aminocyclitol derivatives and process for producing the same” (priority 1975, dated 1978).
≈ marks a conversion by molar mass, not a printed value.

Tests used:
[1] = system: Bacillus subtilis ATCC 6633; assay: paper disk method, inhibitory zone diameter; assay type: cell-based; settings: read-out: inhibitory zone diameter
E. coli K-12 = assay: paper disk method, inhibitory zone diameter; assay type: cell-based; settings: Escherichia coli, K12, read-out: inhibitory zone diameter
[2] = system: Staphylococcus aureus 6538P; assay: paper disk method, inhibitory zone diameter; assay type: cell-based; settings: read-out: inhibitory zone diameter
[3] = system: E. coli HL-1629 (Kanamycin-resistant strain); assay: microbe, parasite or virus in culture; assay type: cell-based; settings: Escherichia coli, read-out: inhibitory zone diameter
Klebsiella 6 = assay: paper disk method, inhibitory zone diameter; assay type: cell-based; settings: Klebsiella, 6; 2000 γ/ml; read-out: inhibitory zone diameter
Klebsiella 7 = assay: paper disk method, inhibitory zone diameter; assay type: cell-based; settings: Klebsiella, 7; 2000 γ/ml; read-out: inhibitory zone diameter
Mycobacterium 607 = assay: paper disk method, inhibitory zone diameter; assay type: cell-based; settings: Mycobacterium, 607, read-out: inhibitory zone diameter
[4] = system: Staphylococcus aureus 209P JC-1; assay: antibacterial activity (Minimum Inhibitory Concentration); assay type: cell-based; settings: Staphylococcus aureus 209P JC-1; read-out: MIC
[5] = system: Staphylococcus aureus Smith S-424; assay: as above; assay type: cell-based; settings: SMITHS424; Staphylococcus aureus Smith S-424; read-out: MIC
[6] = system: Staphylococcus aureus No. 26; assay: as above; assay type: cell-based; settings: Staphylococcus aureus, NO.26
[7] = system: Staphylococcus aureus C73-4; assay: as above; assay type: cell-based; settings: Staphylococcus aureus, C734
[8] = system: Staphylococcus aureus C73-10; assay: as above; assay type: cell-based; settings: Staphylococcus aureus, C7310
[9] = system: Staphylococcus aureus C73-21; assay: as above; assay type: cell-based; settings: C7321; Staphylococcus aureus C73-21; read-out: MIC
[10] = system: Staphylococcus albus PCI-1200A; assay: as above; assay type: cell-based; settings: PCI1200A; Staphylococcus albus PCI-1200A; read-out: MIC
[11] = system: Bacillus subtilis ATCC 6633; assay: as above; assay type: cell-based; settings: ATCC6633; Bacillus subtilis ATCC 6633; read-out: MIC
[12] = system: Bacillus anthracis No. 119; assay: microbe, parasite or virus in culture; assay type: cell-based
E. coli C73-1 = assay: antibacterial activity (Minimum Inhibitory Concentration); assay type: cell-based; settings: Escherichia coli, C731; E. coli C73-1; read-out: MIC
E. coli C73-4 = assay: as above; assay type: cell-based; settings: Escherichia coli, C734; E. coli C73-4; read-out: MIC
E. coli C73-12 = assay: as above; assay type: cell-based; settings: Escherichia coli, C7312
[13] = system: Salmonella species C73-30; assay: as above; assay type: cell-based; settings: C7330
[14] = system: Shigella dysenteriae Shigae; assay: microbe, parasite or virus in culture; assay type: cell-based
Proteus morganii Kono = assay: antibacterial activity (Minimum Inhibitory Concentration); assay type: cell-based; settings: Morganella morganii
Proteus species C73-23 = assay: as above; assay type: cell-based; settings: Proteus species C73-23; read-out: MIC
Proteus species C73-25 = assay: as above; assay type: cell-based; settings: Proteus species C73-25; read-out: MIC
Proteus species C73-33 = assay: as above; assay type: cell-based; settings: Proteus species C73-33; read-out: MIC
Proteus species C73-34 = assay: as above; assay type: cell-based; settings: Proteus species C73-34; read-out: MIC
[15] = system: Enterococcus species C73-33; assay: as above; assay type: cell-based; settings: Enterococcus, C7333
[16] = system: Enterococcus species C73-17; assay: as above; assay type: cell-based; settings: Enterococcus, C7317
[17] = system: Vibrio parahaemolyticus K-3; assay: as above; assay type: cell-based; settings: K3; Vibrio parahaemolyticus K-3; read-out: MIC
[18] = system: Vibrio parahaemolyticus K-5; assay: as above; assay type: cell-based; settings: K5; Vibrio parahaemolyticus K-5; read-out: MIC
[19] = system: Vibrio parahaemolyticus K-7; assay: as above; assay type: cell-based; settings: K7; Vibrio parahaemolyticus K-7; read-out: MIC
microorganisms indicated = assay: antimicrobial activities, paper disk method (general statement); assay type: cell-based; settings: Tables 1 to 4
Description: The inhibitory activities were determined at various concentrations of the compounds using the paper disk method against the microorganisms indicated and the numerical values show the inhibitory zone diameter in terms of mm.

male ICR mice = assay: acute toxicity; settings: intravenous administration, 200 mg/kg

NC[C@H]1O[C@H](O[C@H]2C[C@@H](O)[C@H](N)C[C@@H]2N)[C@H](N)[C@@H](O)[C@@H]1O [5-Deoxyneamine, 5-deoxyneamine]
zone of inhibition at 7.8 µg/mL ([1]; ATCC6633, 7.8 γ/ml): 11.2 mm
zone of inhibition at 15.6 µg/mL ([1]; ATCC6633, 15.6 γ/ml): 13.8 mm
zone of inhibition at 31.2 µg/mL ([1]; ATCC6633, 31.2 γ/ml): 15.7 mm
zone of inhibition at 62.5 µg/mL ([1]; ATCC6633, 62.5 γ/ml): 20.5 mm
zone of inhibition at 125 µg/mL ([1]; ATCC6633, 125 γ/ml): 23.2 mm
zone of inhibition at 250 µg/mL ([1]; ATCC6633, 250 γ/ml): 25.6 mm
zone of inhibition at 500 µg/mL ([1]; ATCC6633, 500 γ/ml): 28.3 mm
zone of inhibition at 1000 µg/mL ([1]; ATCC6633, 1000 γ/ml): 30.8 mm
zone of inhibition at 2000 µg/mL ([1]; ATCC6633, 2000 γ/ml): 33.4 mm
zone of inhibition at 7.8 µg/mL (E. coli K-12; 7.8 γ/ml): 0 mm
zone of inhibition at 15.6 µg/mL (E. coli K-12; 15.6 γ/ml): 0 mm
zone of inhibition at 31.2 µg/mL (E. coli K-12; 31.2 γ/ml): 12.1 mm
zone of inhibition at 62.5 µg/mL (E. coli K-12; 62.5 γ/ml): 14.7 mm
zone of inhibition at 125 µg/mL (E. coli K-12; 125 γ/ml): 17.2 mm
zone of inhibition at 250 µg/mL (E. coli K-12; 250 γ/ml): 18.7 mm
zone of inhibition at 500 µg/mL (E. coli K-12; 500 γ/ml): 22 mm
zone of inhibition at 1000 µg/mL (E. coli K-12; 1000 γ/ml): 24.5 mm
zone of inhibition at 2000 µg/mL (E. coli K-12; 2000 γ/ml): 26.6 mm
zone of inhibition at 7.8 µg/mL ([2]; 7.8 γ/ml): 0 mm
zone of inhibition at 15.6 µg/mL ([2]; 15.6 γ/ml): 0 mm
zone of inhibition at 31.2 µg/mL ([2]; 31.2 γ/ml): 0 mm
zone of inhibition at 62.5 µg/mL ([2]; 62.5 γ/ml): 10.3 mm
zone of inhibition at 125 µg/mL ([2]; 125 γ/ml): 12.4 mm
zone of inhibition at 250 µg/mL ([2]; 250 γ/ml): 15.3 mm
zone of inhibition at 500 µg/mL ([2]; 500 γ/ml): 18.5 mm
zone of inhibition at 1000 µg/mL ([2]; 1000 γ/ml): 20.4 mm
zone of inhibition at 2000 µg/mL ([2]; 2000 γ/ml): 22.5 mm
zone of inhibition at 1000 µg/mL [3]: 0 mm
zone of inhibition at 2000 µg/mL [3]: 13.9 mm
zone of inhibition at 2000 µg/mL (Klebsiella 6): 0 mm
zone of inhibition at 2000 µg/mL (Klebsiella 7): 0 mm
zone of inhibition at 62.5 µg/mL (Mycobacterium 607; 62.5 γ/ml): 0 mm
zone of inhibition at 125 µg/mL (Mycobacterium 607; 125 γ/ml): 0 mm
zone of inhibition at 250 µg/mL (Mycobacterium 607; 250 γ/ml): 10.4 mm
zone of inhibition at 500 µg/mL (Mycobacterium 607; 500 γ/ml): 16.4 mm
zone of inhibition at 1000 µg/mL (Mycobacterium 607; 1000 γ/ml): 22 mm
zone of inhibition at 2000 µg/mL (Mycobacterium 607; 2000 γ/ml): 26.8 mm
MIC [4]: 0.39 µg/mL (≈ 1.27 µM)
MIC [5]: 0.78 µg/mL (≈ 2.55 µM)
MIC [6]: 1.56 µg/mL (≈ 5.09 µM)
MIC [7]: 1.56 µg/mL (≈ 5.09 µM)
MIC [8]: 1.56 µg/mL (≈ 5.09 µM)
MIC [9]: 0.2 µg/mL (≈ 0.653 µM)
MIC [10]: 0.2 µg/mL (≈ 0.653 µM)
MIC [11]: 0.39 µg/mL (≈ 1.27 µM)
MIC [12]: 1.56 µg/mL (≈ 5.09 µM)
MIC (E. coli C73-1): 12.5 µg/mL (≈ 40.8 µM)
MIC (E. coli C73-4): 12.5 µg/mL (≈ 40.8 µM)
MIC (E. coli C73-12): 6.25 µg/mL (≈ 20.4 µM)
MIC [13]: 12.5 µg/mL (≈ 40.8 µM)
MIC [14]: 6.25 µg/mL (≈ 20.4 µM)
MIC (Proteus morganii Kono): 6.25 µg/mL (≈ 20.4 µM)
MIC (Proteus species C73-23): 12.5 µg/mL (≈ 40.8 µM)
MIC (Proteus species C73-25): 3.13 µg/mL (≈ 10.2 µM)
MIC (Proteus species C73-33): 50 µg/mL (≈ 163 µM)
MIC (Proteus species C73-34): 12.5 µg/mL (≈ 40.8 µM)
MIC [15]: 6.25 µg/mL (≈ 20.4 µM)
MIC [16]: 6.25 µg/mL (≈ 20.4 µM)
MIC [17]: 0.39 µg/mL (≈ 1.27 µM)
MIC [18]: 12.5 µg/mL (≈ 40.8 µM)
MIC [19]: 12.5 µg/mL (≈ 40.8 µM)
antimicrobial activities relative to neamine (microorganisms indicated): superior to those of the parent compound neamine
acute toxicity, survival (male ICR mice): all male ICR mice were survived
